Data: PubChem BioAssay AID1963985 (Molecular Pharmacology Branch, DTP, NCI, 2024)

System: 252836-082-R-J2-PDC tumor spheroids, viability
Assay: Anticancer human tumor 252836-082-R-J2-PDC patient-derived head and neck squamous cell carcinoma cell line growth inhibition [PI3K]
Settings: spheroids with HUVEC and MSC; for IC50: curve of first compound; for viability, T/C: stronger effect = lower value
In short: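 High-throughput combination screen: PI3K inhibitors crossed with targeted small molecules on complex spheroids of tumor cells, HUVEC and MSCs at 37 degrees C, 5% CO2. Top concentration was at or near clinical Cmax (otherwise 10 microM), with half-log decrements.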

[1] = second compound 0.00316 µM, first compound 0.0316 µM
[2] = second compound 0.00316 µM, first compound 0.1 µM
[3] = second compound 0.00316 µM, first compound 0.316 µM
[4] = second compound 0.00316 µM, first compound 1 µM
[5] = second compound 0.00316 µM, first compound 3.16 µM
[6] = second compound 0.00316 µM, first compound 10 µM
[7] = second compound 0.01 µM, first compound 0.0316 µM
[8] = second compound 0.01 µM, first compound 0.1 µM
[9] = second compound 0.01 µM, first compound 0.316 µM
[10] = second compound 0.01 µM, first compound 1 µM
[11] = second compound 0.01 µM, first compound 3.16 µM
[12] = second compound 0.01 µM, first compound 10 µM
[13] = second compound 0.0316 µM, first compound 0.0316 µM
[14] = second compound 0.0316 µM, first compound 0.1 µM
[15] = second compound 0.0316 µM, first compound 0.316 µM
[16] = second compound 0.0316 µM, first compound 1 µM
[17] = second compound 0.0316 µM, first compound 3.16 µM
[18] = second compound 0.0316 µM, first compound 10 µM
[19] = second compound 0.1 µM, first compound 0.0316 µM
[20] = second compound 0.1 µM, first compound 0.1 µM
[21] = second compound 0.1 µM, first compound 0.316 µM
[22] = second compound 0.1 µM, first compound 1 µM
[23] = second compound 0.1 µM, first compound 3.16 µM
[24] = second compound 0.1 µM, first compound 10 µM
[25] = second compound 0.316 µM, first compound 0.0316 µM
[26] = second compound 0.316 µM, first compound 0.1 µM
[27] = second compound 0.316 µM, first compound 0.316 µM
[28] = second compound 0.316 µM, first compound 1 µM
[29] = second compound 0.316 µM, first compound 3.16 µM
[30] = second compound 0.316 µM, first compound 10 µM
[31] = second compound 1 µM, first compound 0.0316 µM
[32] = second compound 1 µM, first compound 0.1 µM
[33] = second compound 1 µM, first compound 0.316 µM
[34] = second compound 1 µM, first compound 1 µM
[35] = second compound 1 µM, first compound 3.16 µM
[36] = second compound 1 µM, first compound 10 µM
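Further: spheroids exposed to agents for seven days before readout.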
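Wherever viability, T/C is given: percent of vehicle DMSO control viability so 100% = untreated growth.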

Question: With `CC(Cn1ccc(-c2ccc(C#N)c(Cl)c2)n1)NC(=O)c1cc(C(C)O)[nH]n1` (stereo unspecified) + CC(Nc1ccc2c(c1)OCCn1cc(N3C(=O)OCC3C(F)F)nc1-2)C(N)=O as the compound, how does the IC50 (second compound 0.00316 µM) read?
Answer: > 10 µM

Question: And the IC50 (second compound 0.01 µM)?
Answer: > 10 µM

Question: And the IC50 (second compound 0.0316 µM)?
Answer: > 10 µM

Question: What about the IC50 (second compound 0.1 µM) of the same compound?
Answer: > 10 µM

Question: What about the IC50 (second compound 0.316 µM) of the same compound?
Answer: > 10 µM

Question: What about the IC50 (second compound 1 µM) of the same compound?
Answer: < 0.0316 µM

Question: What about the viability, T/C [1] of the same compound?
Answer: 94.1%

Question: And the viability, T/C [2]?
Answer: 88.5%

Question: And the viability, T/C [3]?
Answer: 97.6%

Question: And the viability, T/C [4]?
Answer: 94.7%

Question: And the viability, T/C [5]?
Answer: 98.7%

Question: And the viability, T/C [6]?
Answer: 90.6%

Question: What about the viability, T/C [7] of the same compound?
Answer: 102%

Question: What about the viability, T/C [8] of the same compound?
Answer: 87.6%

Question: And the viability, T/C [9]?
Answer: 87.6%

Question: And the viability, T/C [10]?
Answer: 106%

Question: What about the viability, T/C [11] of the same compound?
Answer: 90.7%

Question: And the viability, T/C [12]?
Answer: 88.8%

Question: What about the viability, T/C [13] of the same compound?
Answer: 78.4%

Question: And the viability, T/C [14]?
Answer: 82.8%

Question: What about the viability, T/C [15] of the same compound?
Answer: 86.1%

Question: What about the viability, T/C [16] of the same compound?
Answer: 74.8%

Question: What about the viability, T/C [17] of the same compound?
Answer: 78.3%

Question: What about the viability, T/C [18] of the same compound?
Answer: 87.9%

Question: What about the viability, T/C [19] of the same compound?
Answer: 62.1%

Question: And the viability, T/C [20]?
Answer: 63.4%

Question: What about the viability, T/C [21] of the same compound?
Answer: 68.1%

Question: And the viability, T/C [22]?
Answer: 66.1%

Question: What about the viability, T/C [23] of the same compound?
Answer: 66.1%

Question: And the viability, T/C [24]?
Answer: 65.8%

Question: What about the viability, T/C [25] of the same compound?
Answer: 57.7%

Question: What about the viability, T/C [26] of the same compound?
Answer: 57.8%

Question: What about the viability, T/C [27] of the same compound?
Answer: 56.1%

Question: What about the viability, T/C [28] of the same compound?
Answer: 56.8%

Question: What about the viability, T/C [29] of the same compound?
Answer: 56.8%

Question: What about the viability, T/C [30] of the same compound?
Answer: 46.5%

Question: And the viability, T/C [31]?
Answer: 50.2%

Question: And the viability, T/C [32]?
Answer: 47.3%

Question: And the viability, T/C [33]?
Answer: 46.8%

Question: What about the viability, T/C [34] of the same compound?
Answer: 45.3%

Question: What about the viability, T/C [35] of the same compound?
Answer: 49.9%

Question: What about the viability, T/C [36] of the same compound?
Answer: 47.3%

Question: `CC1(C)CCC(Nc2ncc(C(F)(F)F)c(-c3c[nH]c4c(P(C)(C)=O)c(C#N)ccc34)n2)CN1` (stereo unspecified) + CC(Nc1ccc2c(c1)OCCn1cc(N3C(=O)OCC3C(F)F)nc1-2)C(N)=O was tested. Which IC50 (second compound 0.00316 µM) did it give?
Answer: < 0.0316 µM

Question: And the IC50 (second compound 0.01 µM)?
Answer: < 0.0316 µM

Question: What about the IC50 (second compound 0.0316 µM) of the same compound?
Answer: < 0.0316 µM

Question: What about the IC50 (second compound 0.1 µM) of the same compound?
Answer: < 0.0316 µM

Question: And the IC50 (second compound 0.316 µM)?
Answer: < 0.0316 µM

Question: And the IC50 (second compound 1 µM)?
Answer: < 0.0316 µM

Question: And the viability, T/C [1]?
Answer: 27.2%

Question: What about the viability, T/C [2] of the same compound?
Answer: 24.2%

Question: And the viability, T/C [3]?
Answer: 29.6%

Question: What about the viability, T/C [4] of the same compound?
Answer: 24.5%

Question: What about the viability, T/C [5] of the same compound?
Answer: 26.2%

Question: And the viability, T/C [6]?
Answer: 5.32%

Question: What about the viability, T/C [7] of the same compound?
Answer: 27.5%

Question: What about the viability, T/C [8] of the same compound?
Answer: 27.6%

Question: What about the viability, T/C [9] of the same compound?
Answer: 25.7%

Question: What about the viability, T/C [10] of the same compound?
Answer: 25.6%

Question: What about the viability, T/C [11] of the same compound?
Answer: 23.5%

Question: And the viability, T/C [12]?
Answer: 4.5%

Question: And the viability, T/C [13]?
Answer: 26.8%

Question: What about the viability, T/C [14] of the same compound?
Answer: 29.1%

Question: What about the viability, T/C [15] of the same compound?
Answer: 22.2%

Question: What about the viability, T/C [16] of the same compound?
Answer: 23.8%

Question: What about the viability, T/C [17] of the same compound?
Answer: 27.3%

Question: What about the viability, T/C [18] of the same compound?
Answer: 4.59%

Question: And the viability, T/C [19]?
Answer: 24.1%

Question: And the viability, T/C [20]?
Answer: 20.6%

Question: What about the viability, T/C [21] of the same compound?
Answer: 22.1%

Question: What about the viability, T/C [22] of the same compound?
Answer: 24.8%

Question: And the viability, T/C [23]?
Answer: 22.9%

Question: What about the viability, T/C [24] of the same compound?
Answer: 3.21%

Question: And the viability, T/C [25]?
Answer: 20.6%

Question: What about the viability, T/C [26] of the same compound?
Answer: 21%

Question: And the viability, T/C [27]?
Answer: 21.1%

Question: And the viability, T/C [28]?
Answer: 19.5%

Question: And the viability, T/C [29]?
Answer: 20.2%

Question: And the viability, T/C [30]?
Answer: 3.5%

Question: What about the viability, T/C [31] of the same compound?
Answer: 18.4%

Question: And the viability, T/C [32]?
Answer: 19.3%

Question: What about the viability, T/C [33] of the same compound?
Answer: 16.6%

Question: And the viability, T/C [34]?
Answer: 19.6%

Question: And the viability, T/C [35]?
Answer: 18.2%

Question: What about the viability, T/C [36] of the same compound?
Answer: 2.31%

Question: Which results are given for `Cn1nccc1Nc1nccc(-c2ccn(C(CO)c3ccc(Cl)c(F)c3)c(=O)c2)n1` (stereo unspecified) + CC(Nc1ccc2c(c1)OCCn1cc(N3C(=O)OCC3C(F)F)nc1-2)C(N)=O?
Answer: IC50 (second compound 0.00316 µM): > 10 µM; IC50 (second compound 0.01 µM): > 10 µM; IC50 (second compound 0.0316 µM): > 10 µM; IC50 (second compound 0.1 µM): 5.84 µM; IC50 (second compound 0.316 µM): 1.07 µM; IC50 (second compound 1 µM): < 0.0316 µM; viability, T/C [1]: 80.8%; viability, T/C [2]: 90%; viability, T/C [3]: 92.5%; viability, T/C [4]: 85.4%; viability, T/C [5]: 72.5%; viability, T/C [6]: 61.9%; viability, T/C [7]: 85.5%; viability, T/C [8]: 78.7%; viability, T/C [9]: 81%; viability, T/C [10]: 89.7%; viability, T/C [11]: 82.5%; viability, T/C [12]: 58.1%; viability, T/C [13]: 69.4%; viability, T/C [14]: 74.2%; viability, T/C [15]: 69.8%; viability, T/C [16]: 75.8%; viability, T/C [17]: 83.8%; viability, T/C [18]: 44.6%; viability, T/C [19]: 70.4%; viability, T/C [20]: 58%; viability, T/C [21]: 64.1%; viability, T/C [22]: 64.6%; viability, T/C [23]: 60.9%; viability, T/C [24]: 40.4%; viability, T/C [25]: 49.5%; viability, T/C [26]: 50.3%; viability, T/C [27]: 55.5%; viability, T/C [28]: 50.1%; viability, T/C [29]: 40.7%; viability, T/C [30]: 28.6%; viability, T/C [31]: 39.1%; viability, T/C [32]: 43%; viability, T/C [33]: 38.7%; viability, T/C [34]: 38.6%; viability, T/C [35]: 31.9%; viability, T/C [36]: 22.6%
